From patent publication US20090215669A1, “COMPOSITIONS AND METHODS FOR TREATMENT OF DIABETES” (DIA-B TECH LIMITED, priority 2005, published 2009)
Values joined by “and” are separate entries in the source; they are usually repeats but may differ in a detail not shown here. Identical values can stand only once. Ends that are not written are not given here. Peptide text beside a SMILES is read from it.

How the values were obtained:
[1] = Intravenous administration of 14C-ISF402: radioactivity in blood and serum; assay type: in vivo, rat
Procedure: (§1) ^14C-ISF402 (22.7 μCi/mg) was dissolved in water and diluted with unlabelled ISF402 to a concentration of 30 mg/mL for oral and 4.5 mg/mL for intravenous (IV) administration. The day before the experiment 16-18 week female Zucker fa/fa rats (300-400 g) rats were fasted overnight with free access to water before oral administration of ^14C-ISF402 by gavage at 30 mg/kg, 260-263.7 kBq/kg (5.0-5.1 μCi/kg) or IV with 4.5 mg/kg, 103.0-107.3 kBg/kg (1.98-2.06 μCi/kg). After administration of ^14C-ISF402 rats were placed into metabolic cages with free access to food and water.
(§2) Blood samples were collected from the tail vein over the 7 hour time course. Urine was collected at 4 and 12 hours after administration. Whole blood samples (100 μL) were collected and placed into dry ice then stored at −80° C. 50 μL of serum from whole blood was collected into T-MG clotting capiject tubes (Terumo, Elkton, Md.). Sera were separated by centrifuging blood for 90 seconds at 3000×g at room temperature. 100 μL and 50 μL of whole blood and serum, respectively was used for the measurement of radioactivity. The whole blood and serum samples were solubilized with 2 volumes of sample, 2 volumes of 1.4M NaOH and 1 volume of 30 percent hydrogen peroxide. The final volume was made to 1 mL by the addition of distilled water. 4 mL of HiSafe3 Optiphase (PerkinElmer, Boston, Mass.) was added and radioactivity determined in a Wallac Scintillation counter.
(§3) Urine was frozen at −20° C. until analysed for radioactivity. After measuring the total volume of urine, 100 μL of urine and 100 μL ethanol was added to 4 mL scintillant. Samples were left overnight after the addition of scintillant then counted for radioactivity using a Wallac 1409 liquid scintillant counter (PerkinElmer, Boston, Mass.). Radioactivity in all samples was counted several times over the course of 4 weeks until readings were consistent. Radioactivity was expressed as μg equivalent (eq.)/mL. This was calculated from the dpm per mL of sample divided by the specific radioactivity of the peptide administered. The integrity of the radiolabelled peptide in serum and urine samples was determined by reverse phase HPLC as described above.

[2] = Oral administration of 14C-ISF402: radioactivity in blood, serum and urine; assay type: in vivo, rat
Procedure: as §1, §2, §3

[3] = biological target: T1, Zinc-insulin hexamers (Bos taurus, UniProt P01317); assay: Circular dichroism of zinc-insulin hexamers (dispersal); assay type: biochemical, bovine; conditions: Zn-insulin 1 mg/mL; for CD signal at 275 nm of Zn-insulin upon addition: ISF401 1 μL of 100 mM, EDTA 4 mM
T1 construct: Zinc-insulin hexamers were prepared by dissolving bovine insulin containing 0.6% zinc
Procedure: Zinc-insulin hexamers were prepared by dissolving bovine insulin containing 0.6% zinc in […] then raising the pH to 7.2-7.4 by addition of NaOH. HEPES buffer was added to give a final solution of 1 mg/mL insulin in 25 mM HEPES buffer (pH 7.2). The CD spectrum of insulin or ISF401 was measured from […] at 20° C. on a Jasco J-810 spectropolarimeter equipped with a PFD 423S/L Peltier type temperature controller. 200 μL of sample was placed in a quartz cuvette, with path length of 1 mm, in the spectropolarimeter and the CD spectrum was recorded. Each spectrum represents an average of 3-5 scans performed at 100 nm/min with a band width of 1 nm. The effect of ethylenediamine tetraacetic acid (EDTA) and ISF401 were measured by adding an aliquot of EDTA (4 mM) or an aliquot of ISF401 (100 mM) and measuring the CD spectrum.
To test dispersal of insulin hexamers by ISF401, circular dichroism (CD) was used.
The CD signal at 275 nm was used to measure the association state of insulin in the presence of ISF401 (1 μL of 100 mM), EDTA ([…] of 4 mM) and deionised water (1 μL).

[4] = biological target: T2, hexameric insulin (Homo sapiens, UniProt P01308); assay: Size exclusion chromatography of hexameric insulin with test peptide; assay type: biochemical
T2 construct: correspond to dimeric insulin (11.8 kDa) and monomeric (5.8 kDa) insulin respectively; purchased Sigma 19278
Procedure: Size exclusion chromatography was used to study the effect of GHTD-amide (ISF401) on hexameric insulin. Recombinant Human Insulin solution (Sigma 19278) was diluted to 2 mg/mL with 10 mM Tris pH 7.4 and dialysed against 10 mM Tris pH 7.4 (to remove HEPES which absorbs strongly at 214 nm and coelutes with GHTD-amide). Insulin stock solution at 1.5 mg/mL was then prepared by addition of phenol to 4 mM, NaCl to 140 mM and ZnCl2 to 100 μM. Prior to size exclusion chromatography stock insulin was mixed either with water or test peptide to give a final concentration 1 mg/mL each of insulin and test peptide when applicable, and 10 mM Tris pH 7.4, 140 mM NaCl and […] ZnCl2 then incubated at room temperature for 1 hour. Samples of insulin or mixtures (800 μL) were then subjected to size exclusion chromatography using a 1×30 cm Superdex 75 HR 10/30 column at a flow rate of 0.1 mL min^−1 with an eluent comprising Tris-buffered isotonic saline (140 mM NaCl, 10 mM Tris/HCl pH 7.4, 60 μM ZnCl2) at a flow rate of 0.1 mL min^−1, UV detection at 214 nm and 276 nm, and collection of 0.5 mL fractions for protein determination. Protein size standards Aprotinin (6 kDa) and Carbonic Anhydrase (29 kDa) run under the same conditions eluted at 18.85 mL and 14.75 mL respectively. The gel matrix, which has a fractionation range of 3,000 to 70,000 Da, and sample volume loaded were chosen to ensure that the two peptides remained in contact within the gel matrix thereby allowing interaction to occur between the two during the separation process. The concentration of insulin was maintained at 1 mg/mL at pH 7.4 in the presence of 2 Zn^2+/hexamer since it has been shown that at this concentration insulin exists predominantly as Zn^2+-dependent hexamers.

[5] = tested on: female Zucker fa/fa rats; assay: Intravenous injection of female Zucker fa/fa rats: blood glucose, serum insulin, C-peptide, triglyceride; assay type: in vivo, rat; conditions: iv, Lispro insulin 1 U/kg alone, 60 minutes after injection
[6] = IV 4.5 mg/kg, 2 minutes after injection
[7] = IV 4.5 mg/kg, 90 minutes after injection, assuming radioactivity is intact ISF402
[8] = after incubation with test peptide, 276 nm

T2 sequence (P01308 25-54 limits assumed): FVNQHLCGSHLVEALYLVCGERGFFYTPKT
T2 sequence (P01308 90-110 limits assumed): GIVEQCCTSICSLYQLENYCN
T1 sequence (P01317 25-54 limits assumed): as the sequence (P01308 25-54 limits assumed) above, with T30A counted along it
T1 sequence (P01317 85-105 limits assumed): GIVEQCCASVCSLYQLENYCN

What does the source list for CC(C)[C@H](N)C(=O)N[C@@H](Cc1c[nH]cn1)C(=O)N[C@H](C(=O)N[C@@H](CC(=O)O)C(N)=O)[C@@H](C)O [14C-ISF402] (H-VHTD-NH2)?
concentration in serum (radioactivity) [1, 6]: 24.8 ± 0.3 µg/mL; concentration in whole blood (radioactivity) [1, 6]: 12 ± 1 µg/mL; concentration in serum (radioactivity) [1, 7]: 8 ± 2 µg/mL; concentration in whole blood (radioactivity) [1, 7]: 3.4 ± 1.3 µg/mL; level at 7 h ([1]; rat, in vivo, IV 4.5 mg/kg, 7 hours, read-out: concentration detected at the conclusion of the time course): 2200 ± 1500 ng/mL; integrity of peptide in serum by reverse phase HPLC ([1]; serum collected 2 minutes after IV administration): intact; concentration in whole blood and sera ([2]; 30 minutes after oral dosing): Approximately 4 μg/mL; time to appearance in the circulation after dosing ([2]; oral 30 mg/kg): ≤ 30 min; concentration in whole blood (radioactivity) ([2]; oral 30 mg/kg, 7 hours): 44.2 ± 2.5 µg/mL; concentration in sera (radioactivity) ([2]; oral 30 mg/kg, after 90 minutes): 22.1 ± 4.9 µg/mL; concentration in whole blood (radioactivity) ([2]; oral 30 mg/kg, after 90 minutes, assuming labelled ISF402 still intact): 23.7 ± 2.1 µg/mL; level at 2 h ([2]; rat, in vivo, 30 mg/kg, 120 minutes after oral dosing, read-out: ISF402 levels in the circulation): > 20000 ng/mL; composition of radioactivity in urine ([2]; urine collected over 4 hours after dosing): mixture of degraded peptide and intact ISF402; share of radioactivity in urine associated with intact ISF402 ([2]; urine collected over 12 hours after administration): 47% and 46%; radioactivity retrieved in urine, of the total radioactive ISF402 administered ([2]; urine, 12 hours): 0.97±0.13%; share of radioactivity in urine associated with free Valine ([2]; urine, 12 hours after administration): 32%

Which “CD signal at 275 nm of Zn-insulin upon addition” value [3] does the source give for O=C(O)CN(CCN(CC(=O)O)CC(=O)O)CC(=O)O [EDTA, ethylenediamine tetraacetic acid, reference compound] here?
Its value is “increased”.

For Gly-His-Thr-Asp-NH2 (GHTD-NH2) [ISF401], which “dissociation of hexameric insulin after incubation with test peptide” value ([4]; 1 mg/mL each of insulin and peptide, 1 hour room temperature, monitoring at 276 nm) is on record?
The value was “cause the dissociation (disaggregation) of hexamers to dimeric and monomeric forms”.

And the “elution volume of emerging peak corresponding to dimeric insulin (11.8 kDa)” value [4, 8]?
Its value is 15.085 mL.

And the “elution volume of emerging peak corresponding to monomeric (5.8 kDa) insulin” value [4, 8]?
Its value is 19.045 mL.

And the “molar excess to insulin at maximum dispersion of insulin hexamers” value [3]?
Its value is 10 fold.

And the “CD signal at 275 nm of Zn-insulin upon addition” value [3]?
The value was “increased”.

Which “reduction in blood glucose” value [5] does the source give for “Lispro insulin: altered form of human insulin that does not form stable hexamers; Lispro (Humalog), Eli Lilly [reference compound]” here?
The value was 0.90 ± 0.77 mmol/L.
